For the test, the system named is human embryonic stem cell derived neural stem cells (NSCs). The test is described as follows: Neural stem cell proliferation assay (neurogenesis assay, ATP levels by CellTiterGlo). In kind it is cell-based. To be noted: 96 h, compound concentration at which 150% activity of control (100%) is reached, NSC proliferation, ATP readout after 4 days incubation. The procedure: Neural Stem Cell Proliferation Assay
Neurogenic properties of small molecules are determined based on the proliferation of human embryonic stem cell derived neural stem cells (NSCs) which were derived via a dual smad inhibition as previously described (Chambers, S. M., et al., Highly efficient neural conversion of human ES and iPS cells by dual inhibition of SMAD signaling, Nature biotechnology, 2009. 27(3): p. 275-80.) Compounds respond is measured by the increase in cells based on ATP levels (Promega:CellTiterGlo®) after an incubation period of 4 days. NSCs are thawed and expanded over 3 passages. On the 14th day, NSCs are seeded in Polyornithin/Laminin coated 384 well plates at a cell density of 21,000 cells/cm^2 in a media volume of 38 μl. 4 hours after cell seeding, compound solutions are added at a volume of 2 μl. Stock solutions of the compounds (water, 5% DMSO) are diluted to obtain a dose response (11 points, dilution factor is 2), ranging from 8 μM to 8 nM. Controls are run to consistently determine the neurogenic properties of the cells: Negative (neutral) control is cell culture Media (final DMSO concentration: 0.25%). Positive controls are: • 1. cell culture Media+100 ng/ml FGF2 (final DMSO concentration: 0.1%) • 2. cell culture Media+20 ng/ml EGF (final DMSO concentration: 0.1%) • 3. cell culture Media+100 ng/ml Wnt3a (final DMSO concentration: 0.1%) After 4 days incubation at 37° C., 5% CO2, the amount of ATP per well is quantified. The ATP concentration is proportional to the cell number. ATP is quantified by using the Promega CellTiterGlo® kit. The CellTiterGlo® reagents contain a cell lysis buffer, a thermo stable luciferase (UltraGlo™ recombinant luciferase), magnesium and luciferin. Luciferin reacts with ATP producing oxyluciferin, AMP and light. The luminescence signal is proportional to the ATP content. The value of negative (neutral) control is determined for each assay plate by taking the average of 16 negative control wells. The neurogenic compound response is calculated for each compound as (compound/Negative Control)*100. The values of EC150 from the dose response curve are determined for each test compound. The EC150 is the compound concentration at which 150% activity of control (100%) is reached.

`O=C(c1cnc2cncc(-c3ccc(C(F)(F)F)c(F)c3)c2n1)N1CCC(O)C1` (centres unmarked) [Example 52, (8-(3-Fluoro-4-(trifluoromethyl)phenyl)pyrido[4,3-b]pyrazin-2-yl)(3-hydroxypyrrolidin-1-yl)methanone]: the EC (150% of control) stood at 0.07 µM.
Molecule `Cc1cccc(-c2cncc3ncc(C(=O)NC(C)C(C)(C)O)nc23)n1` (centres unmarked) [Example 53, N-(3-Hydroxy-3-methylbutan-2-yl)-8-(6-methylpyridin-2-yl)pyrido[4,3-b]pyrazine-2-carboxamide] came in with an EC (150% of control) of 0.5 µM.
